Data: US4978751A, “Low-calorie sweeteners of fructosyl oligosaccharides and the food or dietetic products or drinks containing them” (Roussel-Ulcaf, priority 1988, dated 1990)

What was measured:
in vitro [1] = conditions: rat, jejunum homogenate, pH 6
Procedure: (§1) 5 cm of jejunum is removed from a male Sprague Dawley rat (previously put on a diet for 25 hours) and rinsed with a solution of physiological serum.
(§2) The jejunum (weighing about 150 mg) is pulverized in the presence of 0.9% NaCl (w/v) using a "Polytron" type homogenizer then the pulverized product is brought to 10 ml (with 0.9% NaCl solution).
(§3) The reaction mixture containing 2 ml of fructosyl oligosaccharide solution and 2 ml of homogenate is incubated for 24 hours at 37° C., under magnetic agitation.
(§4) In a second series of tests, the evolution of the composition of the fructosyl oligosaccharide is followed over a period of time by inverse plane HPLC (Nucleosil C18 column--eluent: water), the control sugar still being saccharose.

[2] = test system: homogenate of the jejunum of a rat; experiment: in vitro; conditions: 0 min, pH 6
Procedure: as §1, §2, §3, §4

in vitro [3] = format: in vitro ADME; conditions: rat, jejunum homogenate, pH 6
Procedure: (§5) Then the products are dissolved in a 0.05M sodium phosphate (buffer pH 6.0), so as to have a molar concentration of […]. […] The reaction mixture containing 2 ml of fructosyl oligosaccharide solution and 2 ml of homogenate is incubated for 24 hours at 37° C., under magnetic agitation. Samples are taken at regular intervals, and the intestinal enzymes are thermally inactivated. A parallel test is carried out on a control solution containing saccharose.

[4] = test system: homogenate of the jejunum of a rat; experiment: in vitro; format: in vitro ADME; conditions: 0 min, pH 6
Procedure: as §5

[5] = test system: homogenate of human jejunal mucous; experiment: in vitro; format: in vitro ADME; conditions: 0 min
Procedure: (§6) The preparation is identical to that given in Example 2, paragraph 2.1. The jejunal mucous (about 40 mg) is homogenized in the presence of a 0.9% aqueous solution of NaCl (weight/volume) using a "Polytron" type homogenizer. The homogenate is then brought to 12 ml (with the 0.9% solution of NaCl). The reaction mixture containing 2 ml of fructosyl oligosaccharide solution and 2 ml of homogenate is incubated for 24 hours at 37° C. under magnetic agitation. Samples are taken at regular intervals and the intestinal enzymes are thermally inactivated. A parallel test is carried out on a control solution containing saccharose. […] [formula]

in vitro [6] = format: in vitro ADME; conditions: human, jejunal mucous homogenate
Procedure: as §6

[7] = test system: alpha amylase of human saliva; experiment: Hydrolysis test with alpha amylase of human saliva; format: in vitro ADME; conditions: substrate 3 g/liter, pH 7.0, 17.8 units enzyme, 2 hours at 37° C.
Procedure: After 2 hours, the reaction is stopped by heating.

[8] = test system: alpha amylase from the pancreas of a pig; experiment: Hydrolysis test with alpha amylase of the pancreas of a pig; conditions: substrate 3 g/liter, pH 7.0, 19 units enzyme, 2 hours at 37° C.
Procedure: The product is then dissolved is a 0.1M sodium phosphate buffer, (pH 7.0), so as to obtain a final concentration of 3 g/liter of fructosyl oligosaccharide. A mixture containing 2 ml of fructosyl oligosaccharide solution (prepared as above in 1.1) and 19 units of alpha amylase from the pancreas of a pig (SIGMA Ref […]) is incubated for 2 hours at 37° C. The reaction is stopped by heating. The glucose which has appeared is measured by the enzymatic method with glucose oxidase/peroxidase (Boehringer test Ref. 124036). A control test is carried out with maltodextrins, type glucidex 21 (Societe Roquette, France). The results are given in micromoles of glucose formed per enzyme unit and per hour.

| Structure (SMILES) | remaining at 24 h (in vitro [1]) [%] | Composition in carbohydrate %: Saccharose [2] [%] | metabolised at 8.5 h (in vitro [3]) [%] | metabolised at 17.5 h (in vitro [3]) [%] | metabolised at 24 h (in vitro [3]) [%] | DH % (degree of hydrolysis) [4] [%] | DH % (degree of hydrolysis) [5] [%] | metabolised at 10 h (in vitro [6]) [%] | metabolised at 24 h (in vitro [6]) [%] | Activity of the alpha amylase of human saliva [7] | Activity of the alpha amylase from the pancreas of a pig [8] | remaining at 8.5 h (in vitro [1]) [%] | Composition in carbohydrate %: Cellobiofructose [2] [%] | Composition in carbohydrate %: Gentiobiofructose [2] [%] |
| --- | --- | --- | --- | --- | --- | --- | --- | --- | --- | --- | --- | --- | --- | --- |
| OC[C@H]1O[C@@](CO)(O[C@H]2O[C@H](CO)[C@@H](O)[C@H](O)[C@H]2O)[C@@H](O)[C@@H]1O [Saccharose, saccharose, reference compound] | 4 | 100 | 57.6 | 66.7 | 92.7 | 0 | 0 | 57.1 | 88 | – | – | – | – | – |
| OC[C@H]1O[C@@](CO)(O[C@H]2O[C@H](CO)[C@@H](O[C@@H]3O[C@H](CO)[C@@H](O)[C@H](O)[C@H]3O)[C@H](O)[C@H]2O)[C@@H](O)[C@@H]1O [Cellobiofructose, cellobiofructose] | 93.6 | – | 0 | 3.7 | 5.4 | 0 | 0 | 0 | 0 | 0 micromoles of glucose formed p | 0 micromoles of glucose formed p | 97 | 100 | – |
| OC[C@H]1O[C@@](CO)(O[C@H]2O[C@H](CO[C@@H]3O[C@H](CO)[C@@H](O)[C@H](O)[C@H]3O)[C@@H](O)[C@H](O)[C@H]2O)[C@@H](O)[C@@H]1O [Gentiobiofructose, gentiobiofructose] | 99.6 | – | 0 | 0.4 | 0.4 | 0 | 0 | 0 | 0 | 0 micromoles of glucose formed p | 0 micromoles of glucose formed p | 100 | – | 100 |
